# Assay results taken from US20240382564A1, “Methods and Compositions for Treating Muscular Dystrophy and Memory Impairment” (Allysta Pharmaceuticals, Inc., priority 2023, published 2024).
# Where no end group is shown, it is not given here. [ ]: non-standard residue; d: D form. Nva = CCC[C@H](N)C(=O)O
# Experiments:
# Type in all cases: in vivo, mouse
# D2.mdx mice [1] = assay: Cardiac (RV, LV) mitochondrial H2O2 emission and ADP-stimulated respiration
# Description: (§1) D2.mdx mice were treated daily subcutaneously beginning at 7 days of age for 3 weeks at 1 μL/g with ALY688 at 15 mg/kg body weight (high dose drug; HD) or with a saline (VEH) control. Mice were compared to age-matched wildtypes (DBA/2J). […] However, ADP-stimulated respiration supported by pyruvate was increased in VEH (36%) and HD (46%) vs wildtype whereas HD had no effect vs VEH.
# D2.mdx mice [2] = assay: Chamber-specific cardiac fibrosis, histopathological assessment
# Description: as §1
# D2.mdx mice [3] = assay: Fibre-type specific minimal Feret's diameter (muscle atrophy), myosin heavy chain immunofluorescence
# Description: (§2) D2.mdx mice were treated with ALY688 at two different dosages; high dose (HD; 15 mg/kg body weight/day) or low dose (LD; 3 mg/kg body weight/day) dissolved in saline. A separate group of mice were treated with saline alone (VEH, vehicle). Treatment was provided via subscapular subcutaneous injections from 7 days of age to 28-30 days. […] At 28-30 days of age, mice were anaesthetized with isoflurane vaporized in medical air (21% oxygen) at a 2 L/min flow rate. Due to tissue limitations in limb muscle, certain measures were performed separately in tibialis anterior and quadriceps across several phases of breeding. Following the treatment protocol, in situ quadriceps force assessments were then performed in one limb followed by removal of the quadriceps from the other limb for mitochondrial assessments, diaphragm for in vitro force assessments and finally other tissues for further processing as described below. Muscle and visceral organs weights were normalized to tibia length. Tissue collected from the first phase were utilized in force, histological, mitochondrial measures (respiration, mH2O2 and calcium retention capacity) and western analyses (diaphragm and quadriceps only). A second phase was then collected and utilized for cytokine profiling, qPCR analyses and additional westerns (TA only). Serum was collected from both phase 1 and 2 and utilized for serum CK analysis. All animals were utilized in in vivo functional assays (grip strength, cage hang time and voluntary wheel running).
# Samples collected were cut into 8 µm thick serial cross sections with a cryostat (Thermo Fisher Scientific; Kalamazoo, MI, United States;) maintained at −20° C. on Fisherbrand Superfrost Plus slides (Thermo Fisher Scientific). Hematoxylin and eosin (H&E) and Masson's trichrome staining was used to assess muscle health and fibrosis. Centralized nuclei, a marker of regenerating fibres, was analyzed by selecting five evenly spaced images throughout the muscle and averaging the result. Areas of damage (fibres with fragmented sarcoplasm and immune cell infiltration) were expressed as a percentage of the entire muscle section. Images were taken using EVOS M7000 imager (Thermo Fisher Scientific) using 20× magnification and analyzed using ImageJ (http://imagej.nih.gov/ij/). To determine fibrotic area, skeletal muscle sections were stained with Masson's Trichrome (fibrotic regions stain blue for collagen) and expressed as a percentage of a region of interest, which included the entire muscle section with any artifacts removed. Sections were imaged Nikon 90i-eclipse microscope (Nikon Inc., Melville, NY) and analysed with the NIS Elements AR software (v4.6, Nikon). […] These images were then analyzed with ImageJ for minimal Feret's diameter as an index of muscle atrophy.
# D2.mdx mice [4] = assay: Mitochondrial calcium retention capacity; conditions: between groups
# Description: D2.mdx mice were treated with ALY688 at two different dosages; high dose (HD; 15 mg/kg body weight/day) or low dose (LD; 3 mg/kg body weight/day) dissolved in saline. A separate group of mice were treated with saline alone (VEH, vehicle). Treatment was provided via subscapular subcutaneous injections from 7 days of age to 28-30 days. […] At 28-30 days of age, mice were anaesthetized with isoflurane vaporized in medical air (21% oxygen) at a 2 L/min flow rate. Due to tissue limitations in limb muscle, certain measures were performed separately in tibialis anterior and quadriceps across several phases of breeding. […]
# This assay was measured spectrofluorometrically (QuantaMaster 80, HORIBA Scientific) in a cuvette with 300 μL assay buffer containing 1 μM Calcium Green-5N (Invitrogen), 2 μM thapsigargin, 5 μM blebbistatin, and 40 μM EGTA while maintained at 37° C. with continuous stirring. 5 mM glutamate, 2 mM malate, 5 mM ADP and 20 mM creatine were added to the assay buffer and minimum fluorescence was recorded. 4 nmol pulses of CaCl2 were added until the mitochondrial permeability transition pore (mPTP) opening was observed as an increase in fluorescence corresponding to net mitochondrial calcium release, at which point saturating pulses of CaCl2 were used to establish maximum fluorescence. […]
# D2.mdx mice [5] = assay: Muscle cytokine mRNA by quantitative PCR
# Description: as §2
# Samples were lysed using TRIzol reagent and RNA was separated to aqueous phase using chloroform. The aqueous layer containing RNA was then mixed with isopropanol and loaded to Aurum Total RNA Mini Kit columns (Bio-Rad, Mississauga, ON, Canada). Total RNA was then extracted according to the manufacturer's instructions and concentration was assessed on the nanodrop attachment for the Varioskan LUX Multimode Microplate reader (Thermo Scientific). Reverse transcription of RNA into cDNA was performed by M-MLV reverse transcriptase and oligo (dT) primers (Qiagen). cDNA was then amplified in a CFX384 Touch Real-Time PCR Detection Systems (Bio-Rad) with a SYBR Green master mix and specific primers. Standard curves were created by plotting log DNA concentrations against Ct values from a 1:5 serial dilutions with CFX Manager Software. Gene expression was normalized to a Rplp0 control, and relative differences were determined using the ΔΔCt method Values are presented as fold increases relative to WT group.
substance,measurement,setting,value
[dN]IP[Nva]LY[dS]FA[dS]-NH2 [ALY688],"ADP-stimulated respiration supported by pyruvate, HD vs VEH",D2.mdx mice [1]; LV,no effect
same,"ADP-stimulated respiration supported by pyruvate, increase vs wildtype","D2.mdx mice [1]; LV, HD, VEH 36%",46%
same,mH2O2 emissions supported by pyruvate,"D2.mdx mice [1]; LV, between groups",not different between groups
same,ADP-stimulated respiration supported by pyruvate,"D2.mdx mice [1]; RV, HD, VEH −49% vs wildtype",completely rescued
same,mH2O2 emission stimulated by pyruvate,"D2.mdx mice [1]; RV, HD, range of [ADP], VEH +88% vs wildtype",did not change
same,left atrial fibrosis,D2.mdx mice [2]; HD 15 mg/kg s.c. daily for 3 weeks from 7 days of age,completely rescued
same,right ventricular (RV) fibrosis,"D2.mdx mice [2]; HD 15 mg/kg s.c. daily for 3 weeks, VEH +385%",completely rescued
same,atrophy in MHC I fibers (minimal feret diameter),"D2.mdx mice [3]; diaphragm, HD 15 mg/kg/day",completely prevented atrophy
same,"minimal feret diameter, IIA fibers","D2.mdx mice [3]; diaphragm, HD, WT 24, VEH 20",22 μm
same,"minimal feret diameter, IIB fibers","D2.mdx mice [3]; diaphragm, HD, WT 26, VEH 23",24 μm
same,minimal feret diameter in any fiber type,"D2.mdx mice [3]; tibialis anterior, between the groups",no differences
same,mitochondrial calcium retention capacity,D2.mdx mice [4],no differences between groups
same,IL-10 mRNA content,"D2.mdx mice [5]; diaphragm, HD",not different between groups
same,TGF-β mRNA contents,"D2.mdx mice [5]; diaphragm, HD",unchanged in all groups
same,TNF-α mRNA content,"D2.mdx mice [5]; diaphragm, HD",not different between groups
same,IL-1β mRNA,"D2.mdx mice [5]; diaphragm, HD vs VEH",not affected by the drug
same,IL-6 mRNA content,"D2.mdx mice [5]; diaphragm, HD, increase in VEH attenuated",51.8 % increase vs WT
same,attenuation of TNF-α mRNA compared to VEH,"D2.mdx mice [5]; tibialis anterior, HD",41.4%
